# Laboratory results from ChEMBL document CHEMBL6071130, “A comprehensive review of small molecule drugs approved by the FDA in 2023: Advances and prospects” (Eur J Med Chem, 2024).
# pIC50: −log10 of the molar value.
# What was measured:
# [1] = target: Gamma-secretase
# Description: Inhibition of Gamma-secretase (unknown origin)
# [2] = Half life in mouse; type: ADME, organism-based; settings: in vivo
# [3] = in vivo; settings: mouse, po
# Description: Oral bioavailability in mouse
SMILES,pIC50 [1],half-life [2] [h],bioavailability [3] [%]
C[C@H](NC(=O)Cc1cc(F)cc(F)c1)C(=O)N[C@H](C(=O)OC(C)(C)C)c1ccccc1,7.70,,
CCO[C@H]1CCN(Cc2c(OC)cc(C)c3[nH]ccc23)[C@H](c2ccc(C(=O)O)cc2)C1 [IPTACOPAN],,7,60
